Experimental data taken from patent publication US20230416256A1, “SMALL MOLECULE INHIBITORS OF NF-kB INDUCING KINASE” (Janssen Pharmaceutica NV, priority 2020, published 2023).

Experiments:
[1] = target: recombinant human NF-kappaB-inducing kinase (NIK/MAP3K14) (Homo sapiens, UniProt Q99558); experiment: Inhibition of auto-phosphorylation of recombinant human NIK/MAP3K14 activity (AlphaScreen); assay type: biochemical; settings: GST-tagged NIK/MAP3K14 1 nM, 5 μM ATP, 2 h at 25° C.; average of values obtained
Summary of the method: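 GST-tagged NIK (1 nM) auto-phosphorylated for 2 h at 25 °C with 5 μM ATP in 50 mM Tris pH 7.5, 5 mM MgCl2, 0.7% DMSO. Phospho-Ser176/180 was detected by AlphaScreen using an anti-phospho-IKK antibody. IC50 came from sigmoidal fits of % inhibition versus high (full activity) and low (no ATP) controls.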

[2] = system: p-IKKα levels in L363 (NIK translocated multiple myeloma) cells; experiment: Effect of compounds on p-IKKα levels in L363 cells (AlphaLISA SureFire Ultra); assay type: cell-based, human; settings: Homo sapiens, L-363, 250 ng/ml BAFF stimulated, 10 μM MG132, 6 h, average of values obtained, read-out: Assay 2 IC50
Summary of the method: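 L363 cells were BAFF-stimulated overnight (250 ng/ml) in DMEM/0.5% BSA, then exposed to an 11-point 1:3 compound series (0.3% DMSO) with BAFF and 10 μM MG132 for 6 h at 37 °C. p-IKKα (Ser176/180) was measured by AlphaLISA SureFire Ultra. IC50 was fitted from % inhibition normalized to stimulated and unstimulated controls.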

recombinant human NF-kappaB-inducing kinase (NIK/MAP3K14), sequence (Q99558 whole entry): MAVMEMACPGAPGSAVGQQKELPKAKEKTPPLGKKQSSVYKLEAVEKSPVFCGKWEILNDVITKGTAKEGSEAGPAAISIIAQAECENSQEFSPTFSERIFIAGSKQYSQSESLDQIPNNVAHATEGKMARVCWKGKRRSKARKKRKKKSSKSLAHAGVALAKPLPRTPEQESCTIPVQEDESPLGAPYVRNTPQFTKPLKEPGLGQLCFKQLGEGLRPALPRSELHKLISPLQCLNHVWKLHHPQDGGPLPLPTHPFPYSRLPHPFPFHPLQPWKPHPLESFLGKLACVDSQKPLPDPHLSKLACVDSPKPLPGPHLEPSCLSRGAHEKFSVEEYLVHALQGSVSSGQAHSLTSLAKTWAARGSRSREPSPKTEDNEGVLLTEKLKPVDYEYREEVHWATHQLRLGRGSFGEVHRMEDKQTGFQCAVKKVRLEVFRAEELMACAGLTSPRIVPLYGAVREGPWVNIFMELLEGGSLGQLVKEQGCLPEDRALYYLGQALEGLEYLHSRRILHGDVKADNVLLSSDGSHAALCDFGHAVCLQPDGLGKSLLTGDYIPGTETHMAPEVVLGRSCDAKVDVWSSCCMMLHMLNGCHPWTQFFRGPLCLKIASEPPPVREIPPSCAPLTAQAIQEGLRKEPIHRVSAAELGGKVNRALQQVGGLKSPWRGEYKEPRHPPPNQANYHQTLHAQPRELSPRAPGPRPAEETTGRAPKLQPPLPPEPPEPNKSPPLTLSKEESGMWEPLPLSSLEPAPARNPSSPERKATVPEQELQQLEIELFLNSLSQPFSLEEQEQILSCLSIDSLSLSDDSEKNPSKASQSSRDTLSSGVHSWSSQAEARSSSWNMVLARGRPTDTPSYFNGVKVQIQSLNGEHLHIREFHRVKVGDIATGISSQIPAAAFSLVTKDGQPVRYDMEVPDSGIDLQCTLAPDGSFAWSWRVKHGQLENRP

CN1CC[C@@](O)(c2cccc(-c3ccc(-c4c[nH]c5ncccc45)o3)c2)C1=O [Example 114, (R)-3-(3-(5-(1H-Pyrrolo[2,3-b]pyridin-3-yl)furan-2-yl)phenyl)-3-hydroxy-1-methylpyrrolidin-2-one]
IC50 [1]: ≤ 0.1 µM | IC50 [2]: 0.1 to 0.5 µM

CN1CC[C@@](O)(c2cccc(-c3cc(-c4c[nH]c5ncccc45)co3)c2)C1=O [Example 115, (R)-3-(3-(4-(1H-Pyrrolo[2,3-b]pyridin-3-yl)furan-2-yl)phenyl)-3-hydroxy-1-methylpyrrolidin-2-one]
IC50 [1]: > 0.5 µM | IC50 [2]: > 0.5 µM

CN1CC[C@@](O)(c2cccc(-c3coc(-c4c[nH]c5ncccc45)n3)c2)C1=O [Example 116, (R)-3-(3-(2-(1H-Pyrrolo[2,3-b]pyridin-3-yl)oxazol-4-yl)phenyl)-3-hydroxy-1-methylpyrrolidin-2-one]
IC50 [1]: ≤ 0.1 µM | IC50 [2]: > 0.5 µM

CN1CC[C@@](O)(c2cccc(-c3cc(-c4c[nH]c5ncccc45)[nH]n3)c2)C1=O [Example 117, (R)-3-(3-(5-(1H-Pyrrolo[2,3-b]pyridin-3-yl)-1H-pyrazol-3-yl)phenyl)-3-hydroxy-1-methylpyrrolidin-2-one]
IC50 [1]: 0.1 to 0.5 µM | IC50 [2]: > 0.5 µM

CN1CC[C@@](O)(c2cccc(-c3cc(-c4c[nH]c5ncccc45)nn3C)c2)C1=O [Example 118, (R)-3-Hydroxy-1-methyl-3-(3-(1-methyl-3-(1H-pyrrolo[2,3-b]pyridin-3-yl)-1H-pyrazol-5-yl)phenyl)pyrrolidin-2-one]
IC50 [1]: 0.1 to 0.5 µM | IC50 [2]: > 0.5 µM

Cc1c(-c2c[nH]c3ncccc23)n[nH]c1-c1cccc([C@]2(O)CCN(C)C2=O)c1 [Example 119, (R)-3-Hydroxy-1-methyl-3-(3-(4-methyl-3-(1H-pyrrolo[2,3-b]pyridin-3-yl)-1H-pyrazol-5-yl)phenyl)pyrrolidin-2-one]
IC50 [1]: > 0.5 µM | IC50 [2]: > 0.5 µM

CN1CC[C@@](O)(c2cccc(-c3cnc(-c4c[nH]c5ncccc45)n3C)c2)C1=O [Example 120, (R)-3-hydroxy-1-methyl-3-(3-(1-methyl-2-(1H-pyrrolo[2,3-b]pyridin-3-yl)-1H-imidazol-5-yl)phenyl)pyrrolidin-2-one]
IC50 [1]: > 0.5 µM | IC50 [2]: > 0.5 µM

CN1CC[C@@](O)(c2cccc(-c3ncc(-c4c[nH]c5ncccc45)n3C)c2)C1=O [Example 125, (R)-3-Hydroxy-1-methyl-3-(3-(1-methyl-5-(1H-pyrrolo[2,3-b]pyridin-3-yl)-1H-imidazol-2-yl)phenyl)pyrrolidin-2-one]
IC50 [1]: 0.1 to 0.5 µM | IC50 [2]: > 0.5 µM

CN1CC[C@@](O)(c2cccc(-c3nc(-c4ccnc5[nH]ccc45)cs3)c2)C1=O [Example 127, (R)-3-(3-(4-(1H-Pyrrolo[2,3-b]pyridin-4-yl)thiazol-2-yl)phenyl)-3-hydroxy-1-methylpyrrolidin-2-one]
IC50 [1]: ≤ 0.1 µM | IC50 [2]: > 0.5 µM

CN1CC[C@@](O)(c2cccc(-c3nc(-c4ccc5cnn(C)c5c4)cs3)c2)C1=O [Example 128, (R)-3-Hydroxy-1-methyl-3-(3-(4-(1-methyl-1H-indazol-6-yl)thiazol-2-yl)phenyl)pyrrolidin-2-one]
IC50 [1]: > 0.5 µM | IC50 [2]: > 0.5 µM

CN1CC[C@@](O)(c2cccc(-c3nc(-c4cc(N)nc5[nH]ccc45)cs3)c2)C1=O [Example 129, (R)-3-(3-(4-(6-Amino-1H-pyrrolo[2,3-b]pyridin-4-yl)thiazol-2-yl)phenyl)-3-hydroxy-1-methylpyrrolidin-2-one]
IC50 [1]: > 0.5 µM | IC50 [2]: > 0.5 µM

CN1CC[C@@](O)(c2cccc(-c3nc(-c4c(Cl)cnc5[nH]ccc45)cs3)c2)C1=O [Example 130, (R)-3-(3-(4-(5-Chloro-1H-pyrrolo[2,3-b]pyridin-4-yl)thiazol-2-yl)phenyl)-3-hydroxy-1-methylpyrrolidin-2-one]
IC50 [1]: > 0.5 µM | IC50 [2]: > 0.5 µM

CN1CC[C@@](O)(c2cccc(-c3nc(-c4cccc5[nH]ncc45)cs3)c2)C1=O [Example 131, (R)-3-(3-(4-(1H-Indazol-4-yl)thiazol-2-yl)phenyl)-3-hydroxy-1-methylpyrrolidin-2-one]
IC50 [1]: > 0.5 µM | IC50 [2]: > 0.5 µM

CN1CC[C@@](O)(c2cccc(-c3nc(-c4c(F)cnc5[nH]ccc45)cs3)c2)C1=O [Example 132, (R)-3-(3-(4-(5-Fluoro-1H-pyrrolo[2,3-b]pyridin-4-yl)thiazol-2-yl)phenyl)-3-hydroxy-1-methylpyrrolidin-2-one]
IC50 [1]: > 0.5 µM | IC50 [2]: > 0.5 µM
